Source: paper PMC9851200, “Multiparameter phenotypic screening for endogenous TFEB and TFE3 translocation identifies novel chemical series modulating lysosome function” (Autophagy, 2022)

Experiments:
Type in all cases: binding
[1] = molecular target: kinases (KINOMEscan panel) (Homo sapiens, UniProt P22607, G697C); details: FGFR3(G697C); NEW KINOMEscan
[2] = molecular target: kinases (KINOMEscan panel) (Homo sapiens, UniProt P10721, V559D); details: kinase KIT(V559D); NEW KINOMEscan
[3] = molecular target: T1, kinases (KINOMEscan panel) (Homo sapiens, UniProt Q6PHR2); details: kinase ULK3; NEW KINOMEscan
T1 sequence (Q6PHR2 1-472): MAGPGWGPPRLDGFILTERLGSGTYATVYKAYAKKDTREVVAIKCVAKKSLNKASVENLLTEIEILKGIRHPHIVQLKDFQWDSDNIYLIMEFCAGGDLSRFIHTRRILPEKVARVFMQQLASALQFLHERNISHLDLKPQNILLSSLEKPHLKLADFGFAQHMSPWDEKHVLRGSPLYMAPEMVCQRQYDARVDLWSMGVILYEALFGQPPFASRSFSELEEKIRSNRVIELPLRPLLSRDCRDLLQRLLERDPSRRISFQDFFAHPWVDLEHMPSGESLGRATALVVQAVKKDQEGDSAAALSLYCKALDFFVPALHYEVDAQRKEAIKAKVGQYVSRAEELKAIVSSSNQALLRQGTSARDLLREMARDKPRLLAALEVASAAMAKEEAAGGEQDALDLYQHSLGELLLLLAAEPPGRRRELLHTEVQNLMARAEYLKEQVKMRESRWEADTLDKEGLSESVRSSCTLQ

[4] = molecular target: T2, kinases (KINOMEscan panel) (Homo sapiens, UniProt O75385); details: NEW KINOMEscan
T2 sequence (O75385 1-1050): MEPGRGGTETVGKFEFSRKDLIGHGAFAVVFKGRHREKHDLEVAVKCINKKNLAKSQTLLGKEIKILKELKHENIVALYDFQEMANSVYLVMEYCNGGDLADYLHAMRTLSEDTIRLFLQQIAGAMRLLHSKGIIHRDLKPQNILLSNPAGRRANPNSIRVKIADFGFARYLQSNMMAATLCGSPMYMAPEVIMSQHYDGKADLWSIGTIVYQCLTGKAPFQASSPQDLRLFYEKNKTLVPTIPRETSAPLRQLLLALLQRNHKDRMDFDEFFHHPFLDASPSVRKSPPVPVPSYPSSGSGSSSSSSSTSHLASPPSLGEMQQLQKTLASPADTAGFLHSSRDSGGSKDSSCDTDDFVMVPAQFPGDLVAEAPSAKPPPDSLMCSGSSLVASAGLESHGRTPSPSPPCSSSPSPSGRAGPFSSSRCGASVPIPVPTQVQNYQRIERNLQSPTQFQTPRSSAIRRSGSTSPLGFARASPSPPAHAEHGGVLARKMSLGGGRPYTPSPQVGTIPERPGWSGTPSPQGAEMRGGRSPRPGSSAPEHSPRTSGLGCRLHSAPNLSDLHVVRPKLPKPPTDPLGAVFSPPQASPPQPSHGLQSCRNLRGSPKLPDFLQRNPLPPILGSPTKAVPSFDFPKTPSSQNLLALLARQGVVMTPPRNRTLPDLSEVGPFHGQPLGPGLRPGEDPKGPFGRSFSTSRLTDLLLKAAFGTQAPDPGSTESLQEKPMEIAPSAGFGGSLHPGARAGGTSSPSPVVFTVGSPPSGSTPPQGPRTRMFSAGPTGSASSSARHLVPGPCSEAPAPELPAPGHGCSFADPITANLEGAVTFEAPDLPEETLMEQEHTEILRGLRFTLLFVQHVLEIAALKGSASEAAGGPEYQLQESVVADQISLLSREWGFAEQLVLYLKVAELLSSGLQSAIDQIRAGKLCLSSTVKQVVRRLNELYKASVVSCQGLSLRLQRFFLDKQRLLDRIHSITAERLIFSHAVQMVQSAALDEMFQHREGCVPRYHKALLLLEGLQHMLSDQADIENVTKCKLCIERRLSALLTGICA

[5] = molecular target: T3, kinases (KINOMEscan panel) (Homo sapiens, UniProt Q04771); details: ACVR1; NEW KINOMEscan
T3 sequence (Q04771 21-509): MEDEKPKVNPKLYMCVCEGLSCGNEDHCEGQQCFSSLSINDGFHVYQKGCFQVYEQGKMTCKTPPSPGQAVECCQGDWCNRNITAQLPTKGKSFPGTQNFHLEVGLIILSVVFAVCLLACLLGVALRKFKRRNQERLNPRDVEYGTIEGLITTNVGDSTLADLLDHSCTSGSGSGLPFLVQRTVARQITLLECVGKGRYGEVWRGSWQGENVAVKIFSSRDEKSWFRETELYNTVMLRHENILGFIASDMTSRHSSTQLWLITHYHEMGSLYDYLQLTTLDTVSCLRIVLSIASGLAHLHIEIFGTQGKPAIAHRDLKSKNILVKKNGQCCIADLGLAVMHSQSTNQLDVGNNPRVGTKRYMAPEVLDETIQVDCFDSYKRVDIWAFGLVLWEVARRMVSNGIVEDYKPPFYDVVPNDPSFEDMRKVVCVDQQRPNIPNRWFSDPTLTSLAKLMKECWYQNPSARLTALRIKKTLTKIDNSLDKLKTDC

[6] = molecular target: T4, kinases (KINOMEscan panel) (Homo sapiens, UniProt Q99759); details: MAP3K3; NEW KINOMEscan
T4 sequence (Q99759 1-626): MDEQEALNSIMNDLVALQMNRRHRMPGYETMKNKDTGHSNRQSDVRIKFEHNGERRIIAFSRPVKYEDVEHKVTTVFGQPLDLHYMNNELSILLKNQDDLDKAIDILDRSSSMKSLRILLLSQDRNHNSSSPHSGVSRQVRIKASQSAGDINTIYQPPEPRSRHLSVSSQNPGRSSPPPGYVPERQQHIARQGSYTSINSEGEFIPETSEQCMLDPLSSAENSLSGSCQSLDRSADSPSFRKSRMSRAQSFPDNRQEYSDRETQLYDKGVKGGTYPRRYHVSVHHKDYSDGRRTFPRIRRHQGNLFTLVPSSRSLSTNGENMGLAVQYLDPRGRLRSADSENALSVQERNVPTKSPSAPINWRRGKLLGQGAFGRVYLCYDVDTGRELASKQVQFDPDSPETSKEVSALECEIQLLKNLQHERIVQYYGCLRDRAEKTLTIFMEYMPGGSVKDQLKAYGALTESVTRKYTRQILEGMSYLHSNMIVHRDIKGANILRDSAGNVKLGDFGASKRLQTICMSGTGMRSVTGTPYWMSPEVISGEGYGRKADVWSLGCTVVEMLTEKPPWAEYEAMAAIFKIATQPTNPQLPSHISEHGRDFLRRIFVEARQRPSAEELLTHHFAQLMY

Sequence of kinases (KINOMEscan panel) (Homo sapiens, UniProt P22607, G697C) (P22607 23-806 G697C): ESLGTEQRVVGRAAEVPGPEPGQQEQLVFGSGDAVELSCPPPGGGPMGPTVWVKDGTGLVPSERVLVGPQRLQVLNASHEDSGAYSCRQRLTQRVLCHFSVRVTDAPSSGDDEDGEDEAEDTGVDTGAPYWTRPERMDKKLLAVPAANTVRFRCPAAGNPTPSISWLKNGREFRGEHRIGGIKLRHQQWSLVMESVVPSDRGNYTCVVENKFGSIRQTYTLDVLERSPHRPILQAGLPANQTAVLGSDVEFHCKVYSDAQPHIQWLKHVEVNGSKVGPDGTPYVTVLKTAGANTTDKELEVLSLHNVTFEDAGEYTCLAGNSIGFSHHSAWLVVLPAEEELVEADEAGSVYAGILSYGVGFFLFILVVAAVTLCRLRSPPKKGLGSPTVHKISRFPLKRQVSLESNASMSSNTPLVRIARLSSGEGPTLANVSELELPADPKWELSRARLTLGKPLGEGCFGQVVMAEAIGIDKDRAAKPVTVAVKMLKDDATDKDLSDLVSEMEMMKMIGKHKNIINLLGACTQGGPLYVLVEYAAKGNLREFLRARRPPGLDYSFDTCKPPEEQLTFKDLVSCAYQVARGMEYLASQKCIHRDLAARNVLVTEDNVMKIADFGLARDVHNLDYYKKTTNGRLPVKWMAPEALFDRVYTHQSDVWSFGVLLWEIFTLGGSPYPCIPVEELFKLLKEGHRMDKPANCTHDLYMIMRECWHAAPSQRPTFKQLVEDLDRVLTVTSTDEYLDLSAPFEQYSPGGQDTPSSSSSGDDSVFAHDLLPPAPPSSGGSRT
Sequence of kinases (KINOMEscan panel) (Homo sapiens, UniProt P10721, V559D) (P10721 26-976 V559D): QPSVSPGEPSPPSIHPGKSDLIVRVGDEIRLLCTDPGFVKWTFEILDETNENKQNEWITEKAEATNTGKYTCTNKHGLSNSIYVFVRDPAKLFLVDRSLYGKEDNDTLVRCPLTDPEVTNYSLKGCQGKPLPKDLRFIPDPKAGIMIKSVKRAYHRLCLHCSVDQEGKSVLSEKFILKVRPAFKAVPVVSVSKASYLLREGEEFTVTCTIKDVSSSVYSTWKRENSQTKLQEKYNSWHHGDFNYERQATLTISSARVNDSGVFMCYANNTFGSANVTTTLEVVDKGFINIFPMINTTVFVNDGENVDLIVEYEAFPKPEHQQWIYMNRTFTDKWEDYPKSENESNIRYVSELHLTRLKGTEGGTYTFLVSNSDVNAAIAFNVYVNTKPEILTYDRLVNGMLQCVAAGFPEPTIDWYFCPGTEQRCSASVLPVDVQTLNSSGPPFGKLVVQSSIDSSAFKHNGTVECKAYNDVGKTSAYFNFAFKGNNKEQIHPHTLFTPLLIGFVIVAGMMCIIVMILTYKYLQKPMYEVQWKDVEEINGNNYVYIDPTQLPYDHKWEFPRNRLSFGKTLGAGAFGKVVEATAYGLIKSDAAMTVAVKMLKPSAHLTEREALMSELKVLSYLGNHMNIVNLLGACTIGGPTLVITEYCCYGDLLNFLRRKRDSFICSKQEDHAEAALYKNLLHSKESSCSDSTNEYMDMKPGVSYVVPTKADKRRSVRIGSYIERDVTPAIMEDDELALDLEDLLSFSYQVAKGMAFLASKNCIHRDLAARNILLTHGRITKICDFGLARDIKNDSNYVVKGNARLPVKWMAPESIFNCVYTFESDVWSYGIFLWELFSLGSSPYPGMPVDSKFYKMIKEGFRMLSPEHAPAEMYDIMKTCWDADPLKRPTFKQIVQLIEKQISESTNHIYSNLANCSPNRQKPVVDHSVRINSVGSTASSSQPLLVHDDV

Row | SMILES | KINOMEscan FGFR3(G697C) [1] | KINOMEscan KIT(V559D) [2] | KINOMEscan ULK3 [3] | KINOMEscan ULK1 [4] | KINOMEscan ACVR1 [5] | KINOMEscan MAP3K3 [6]
1 | Cc1cccc(-c2nc(Nc3ccc4nn(C)cc4c3)c3ccccc3n2)n1 [NK167] | 6 | 15 | 0 | 8 | 0 | 0
2 | Cc1cccc(-c2nc(N(C)c3ccc4ncsc4c3)c3ccccc3n2)n1 [NK-161] | 0 | 7 | 1 | 18 | 0 | 0
